Measurements: PMC4016822 (Molecular bioSystems, 2014)
Entries after “also recorded” stand apart in the source; their conditions may differ.

What was measured:
[1] = test system: non-cancer WI38 fibroblast cell line; experiment: MTT proliferation assay in WI38 fibroblasts; format: cell-based; conditions: for effect on WI38 proliferation: compared with the NSCLC lines
H460 = experiment: MTT proliferation assay in H460 cells; format: cell-based, Human; conditions: 3 days
[2] = test system: NSCLC cancer cell lines H1299, A459, H460; experiment: MTT proliferation assay, NSCLC cell panel; format: cell-based, Human; conditions: for EC50: Homo sapiens
[3] = test system: H460 NSCLC human xenograft; experiment: H460 NSCLC human xenograft model, tumor growth; format: in vivo, NOD/SCID mice; conditions: for median tumor volume: day 24, i.p. daily; for median tumor volume / tumor weight smaller than vehicle: losartan 50 mg/kg, astemizole 10 mg/kg; for tumor weight smaller than vehicle: last day of study, i.p. daily, p<0.01
[4] = test system: H460 NSCLC human xenograft; experiment: Histopathology of resected tumors, mitotic index; format: in vivo, NOD/SCID mice
[5] = mouse, in vivo

Structure (SMILES) | effect on WI38 proliferation [1] | EC50 [2] | median tumor volume [3] | tumor weight smaller than vehicle [3] | animal's body weight [5] | further results
CN1C[C@H](C(=O)N[C@]2(C)O[C@@]3(O)[C@@H]4CCCN4C(=O)[C@H](Cc4ccccc4)N3C2=O)C=C2c3cccc4[nH]cc(c34)C[C@H]21 [Ergotamine] | significantly less effect on WI38 | – | – | – | – | EC50 (H460): 26 ± 1 µM
C=C(c1ccc(C(=O)O)cc1)c1cc2c(cc1C)C(C)(C)CCC2(C)C [Bexarotene] | weaker effect on WI38 proliferation | ~50 µM | – | – | – | –
Cc1nc(Nc2ncc(C(=O)Nc3c(C)cccc3Cl)s2)cc(N2CCN(CCO)CC2)n1 [Dasatinib] | – | – | – | – | – | EC50 ([1]; WI38, MTT, 3 days): sub-micromolar
CCCCc1nc(Cl)c(CO)n1Cc1ccc(-c2ccccc2-c2nn[nH]n2)cc1 [Losartan] | – | – | 2,463 mm^3 | 50% | no significant alteration | cytotoxicity ([2]; concentrations up to 100 μM): very little cytotoxicity; number of mice with tumors that weigh less than 2.5 g ([3]; losartan group n = 10, none of the vehicle): Four; G2M arrest in the cell cycle ([4]; histopathology of resected tumors): significant propensity to cause G2M arrest; also recorded: induced more significant G2M arrest; mitotic index (MI) ([4]; ratio of mitotic to non-mitotic cells in tumor tissue, vehicle 7): 18
CS(=O)(=O)CCNCc1ccc(-c2ccc3ncnc(Nc4ccc(OCc5cccc(F)c5)c(Cl)c4)c3c2)o1 [Lapatinib] | – | 30 to 40 µM | – | – | – | –
COc1ccc(CCN2CCC(Nc3nc4ccccc4n3Cc3ccc(F)cc3)CC2)cc1 [Astemizole] | – | – | 2,810 mm^3 | 15% | no significant alteration | number of mice with tumors that weighed less than 3.2 g ([3]; astemizole group n = 9, smallest vehicle tumor 3.2 g): Three
